# Patent publication US10738028B2, “Spiro three-membered ring, spiro five-membered ring peptide deformylase inhibitor and use thereof in antibacteria and anti-tumor” (priority 2016, dated 2020)
# Experiments:
# Format in all cases: cell-based
# [1] = tested on: Escherichia coli (including ESBLs, non-ESBLs); experiment: MIC, two-fold agar dilution (CLSI), clinical isolates
# Source text: (§1) 1. The invention adopts the two-fold agar dilution method recommended by the operating procedure of antimicrobial susceptibility testing set by American Clinical and Laboratory Standards Institute (CLSI) to determine the Minimum Inhibitory Concentration (MIC) of the test samples against the tested strains.
# [2] = tested on: Streptococcus pneoumoniae (SPN); experiment: as above
# Source text: as §1
# [3] = tested on: Enterococcus faecalis (EFA); experiment: as above
# Source text: as §1
# [4] = tested on: methicillin-resistant Staphylococcus aureus (MRSA); experiment: as above
# Source text: as §1
# [5] = tested on: Moraxella catarrhalis (BCA); experiment: as above; settings: for Anti-bacterial activity (MIC), strain BCA 14-10: clinical isolate BCA 14-10
# Source text: as §1
# [6] = tested on: methicillin-resistant Staphylococcus epidermidis (MRSE); experiment: as above
# Source text: as §1
# [7] = tested on: methicillin-sensitive Staphylococcus epidermidis (MSSE); experiment: as above
# Source text: as §1
# [8] = tested on: methicillin-sensitive Staphylococcus aureus (MSSA); experiment: as above
# Source text: as §1
# [9] = tested on: Enterococcus faecium (EFM); experiment: as above
# Source text: as §1
# [10] = tested on: HCT-116 colorectal cancer cell line; experiment: CCK-8 proliferation inhibition; settings: Homo sapiens, HCT-116, 72 h, concentration of 30 μM; 72 hours; CCK-8; read-out: HCT116 inhibition rate/%
# Outline: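 2000 cells/well, McCoy's 5A + 10% newborn bovine serum; overnight attach, 37° C./5% CO2. Cpd from DMSO stock diluted in medium, 72 h. Readout: CCK-8 (1:10). Ctrl 1‰ DMSO.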
structure (smiles),measurement,setting,value
"O=CN(O)C[C@@H](CC1CCCC1)C(=O)N1CC2(CC2)C[C@H]1C(=O)Nc1cc[nH]n1 [Example 31, (S)-5-((R)-3-cyclopentyl-2-((N-hydroxyformamido)methyl)propionyl)-N-(1H-pyrazol-3-yl)-5-azaspiro[2.4]heptane-6-carboxamide]",MIC (anti-bacterial activity),[1]; strain ECO+ 15-1,32 µg/mL
same,MIC (anti-bacterial activity),[1]; strain ECO+ 15-2,> 32 µg/mL
same,MIC (anti-bacterial activity),[1]; strain ECO+ 15-3,> 32 µg/mL
same,MIC (anti-bacterial activity),[1]; strain ECO+ 15-4,> 32 µg/mL
same,MIC (anti-bacterial activity),[1]; strain ECO− 15-1,> 32 µg/mL
same,MIC (anti-bacterial activity),[1]; strain ECO− 15-2,> 32 µg/mL
same,MIC (anti-bacterial activity),[1]; strain ECO− 15-3,> 32 µg/mL
same,MIC (anti-bacterial activity),[1]; strain ECO− 15-4,> 32 µg/mL
same,MIC (anti-bacterial activity),[2]; strain SPN 16-2,1 µg/mL
same,MIC (anti-bacterial activity),[2]; strain SPN 16-4,16 µg/mL
same,MIC (anti-bacterial activity),[3]; strain EFA 15-1,32 µg/mL
same,MIC (anti-bacterial activity),[3]; strain EFA 15-2,32 µg/mL
same,MIC (anti-bacterial activity),[3]; strain EFA 15-3,32 µg/mL
same,MIC (anti-bacterial activity),[3]; strain EFA 15-4,32 µg/mL
same,MIC (anti-bacterial activity),[3]; strain EFA 15-5,32 µg/mL
same,MIC (anti-bacterial activity),[3]; strain EFA 15-6,32 µg/mL
same,MIC (anti-bacterial activity),[3]; strain EFA 15-9,32 µg/mL
same,MIC (anti-bacterial activity),[4]; strain MRSA 15-1,2 µg/mL
same,MIC (anti-bacterial activity),[4]; strain MRSA 15-2,2 µg/mL
same,MIC (anti-bacterial activity),[4]; strain MRSA 15-3,2 µg/mL
same,MIC (anti-bacterial activity),[4]; strain MRSA 15-4,2 µg/mL
same,"Anti-bacterial activity (MIC), strain BCA 14-10",[5],2 µg/mL
same,MIC (anti-bacterial activity),[5]; strain BCA 14-1,4 µg/mL
same,MIC (anti-bacterial activity),[5]; strain BCA 14-4,16 µg/mL
same,MIC (anti-bacterial activity),[5]; strain BCA 14-5,2 µg/mL
same,MIC (anti-bacterial activity),[5]; strain BCA 14-6,8 µg/mL
same,MIC (anti-bacterial activity),[5]; strain BCA 14-7,2 µg/mL
same,MIC (anti-bacterial activity),[5]; strain BCA 14-8,4 µg/mL
same,MIC (anti-bacterial activity),[6]; strain MRSE 15-1,0.5 µg/mL
same,MIC (anti-bacterial activity),[6]; strain MRSE 15-2,2 µg/mL
same,MIC (anti-bacterial activity),[6]; strain MRSE 15-3,2 µg/mL
same,MIC (anti-bacterial activity),[6]; strain MRSE 15-7,2 µg/mL
same,MIC (anti-bacterial activity),[7]; strain MSSE 15-3,2 µg/mL
same,MIC (anti-bacterial activity),[7]; strain MSSE 15-4,2 µg/mL
same,MIC (anti-bacterial activity),[7]; strain MSSE 15-5,2 µg/mL
same,MIC (anti-bacterial activity),[7]; strain MSSE 15-6,2 µg/mL
same,MIC (anti-bacterial activity),[8]; strain MSSA 15-3,2 µg/mL
same,MIC (anti-bacterial activity),[8]; strain MSSA 15-4,2 µg/mL
same,MIC (anti-bacterial activity),[8]; strain MSSA 15-5,2 µg/mL
same,MIC (anti-bacterial activity),[8]; strain MSSA 15-6,2 µg/mL
same,MIC (anti-bacterial activity),[9]; strain EFM 15-1,4 µg/mL
same,MIC (anti-bacterial activity),[9]; strain EFM 15-2,4 µg/mL
same,MIC (anti-bacterial activity),[9]; strain EFM 15-3,2 µg/mL
same,MIC (anti-bacterial activity),[9]; strain EFM 15-4,4 µg/mL
same,MIC (anti-bacterial activity),[9]; strain EFM 15-5,2 µg/mL
same,MIC (anti-bacterial activity),[9]; strain EFM 15-6,4 µg/mL
same,inhibition at 30 µM,[10],19%
"O=CN(O)C[C@@H](CC1CCCC1)C(=O)N1CC2(CC2)C[C@H]1C(=O)N1CCS(=O)(=O)CC1 [Example 35, N—((R)-2-(cyclopentylmethyl)-3-((S)-6-(1,1-dioxythiomorpholine-4-carbonyl)-5-azaspiro[2.4]heptane-5-yl)-3-propylcarbonyl)-N-hydroxyformamide]",MIC (anti-bacterial activity),[1]; strain ECO+ 15-1,32 µg/mL
same,MIC (anti-bacterial activity),[1]; strain ECO+ 15-2,> 32 µg/mL
same,MIC (anti-bacterial activity),[1]; strain ECO+ 15-3,> 32 µg/mL
same,MIC (anti-bacterial activity),[1]; strain ECO+ 15-4,> 32 µg/mL
same,MIC (anti-bacterial activity),[1]; strain ECO− 15-1,> 32 µg/mL
same,MIC (anti-bacterial activity),[1]; strain ECO− 15-2,> 32 µg/mL
same,MIC (anti-bacterial activity),[1]; strain ECO− 15-3,> 32 µg/mL
same,MIC (anti-bacterial activity),[1]; strain ECO− 15-4,> 32 µg/mL
same,MIC (anti-bacterial activity),[2]; strain SPN 16-2,16 µg/mL
same,MIC (anti-bacterial activity),[2]; strain SPN 16-4,32 µg/mL
same,MIC (anti-bacterial activity),[3]; strain EFA 15-1,32 µg/mL
same,MIC (anti-bacterial activity),[3]; strain EFA 15-2,32 µg/mL
same,MIC (anti-bacterial activity),[3]; strain EFA 15-3,32 µg/mL
same,MIC (anti-bacterial activity),[3]; strain EFA 15-4,32 µg/mL
same,MIC (anti-bacterial activity),[3]; strain EFA 15-5,32 µg/mL
same,MIC (anti-bacterial activity),[3]; strain EFA 15-6,32 µg/mL
same,MIC (anti-bacterial activity),[3]; strain EFA 15-9,32 µg/mL
same,MIC (anti-bacterial activity),[4]; strain MRSA 15-1,16 µg/mL
same,MIC (anti-bacterial activity),[4]; strain MRSA 15-2,32 µg/mL
same,MIC (anti-bacterial activity),[4]; strain MRSA 15-3,16 µg/mL
same,MIC (anti-bacterial activity),[4]; strain MRSA 15-4,32 µg/mL
same,"Anti-bacterial activity (MIC), strain BCA 14-10",[5],32 µg/mL
same,MIC (anti-bacterial activity),[5]; strain BCA 14-1,32 µg/mL
same,MIC (anti-bacterial activity),[5]; strain BCA 14-4,32 µg/mL
same,MIC (anti-bacterial activity),[5]; strain BCA 14-5,16 µg/mL
same,MIC (anti-bacterial activity),[5]; strain BCA 14-6,32 µg/mL
same,MIC (anti-bacterial activity),[5]; strain BCA 14-7,32 µg/mL
same,MIC (anti-bacterial activity),[5]; strain BCA 14-8,32 µg/mL
same,MIC (anti-bacterial activity),[6]; strain MRSE 15-1,16 µg/mL
same,MIC (anti-bacterial activity),[6]; strain MRSE 15-2,32 µg/mL
same,MIC (anti-bacterial activity),[6]; strain MRSE 15-3,32 µg/mL
same,MIC (anti-bacterial activity),[6]; strain MRSE 15-7,32 µg/mL
same,MIC (anti-bacterial activity),[7]; strain MSSE 15-3,32 µg/mL
same,MIC (anti-bacterial activity),[7]; strain MSSE 15-4,32 µg/mL
same,MIC (anti-bacterial activity),[7]; strain MSSE 15-5,32 µg/mL
same,MIC (anti-bacterial activity),[7]; strain MSSE 15-6,32 µg/mL
same,MIC (anti-bacterial activity),[8]; strain MSSA 15-3,32 µg/mL
same,MIC (anti-bacterial activity),[8]; strain MSSA 15-4,32 µg/mL
same,MIC (anti-bacterial activity),[8]; strain MSSA 15-5,32 µg/mL
same,MIC (anti-bacterial activity),[8]; strain MSSA 15-6,32 µg/mL
same,MIC (anti-bacterial activity),[9]; strain EFM 15-1,16 µg/mL
same,MIC (anti-bacterial activity),[9]; strain EFM 15-2,16 µg/mL
same,MIC (anti-bacterial activity),[9]; strain EFM 15-3,16 µg/mL
same,MIC (anti-bacterial activity),[9]; strain EFM 15-4,16 µg/mL
same,MIC (anti-bacterial activity),[9]; strain EFM 15-5,16 µg/mL
same,MIC (anti-bacterial activity),[9]; strain EFM 15-6,16 µg/mL
same,inhibition at 30 µM,[10],-1%
"O=CN(O)C[C@@H](CC1CCCC1)C(=O)N1CC2(CC2)C[C@H]1C(=O)Nc1ccno1 [Example 37, (S)-5-((R)-3-cyclopentyl-2-((N-hydroxyformamido)methyl)propionyl)-N-(isoxazol-5-yl)-5-azaspiro[2.4]heptane-6-carboxamide]",MIC (anti-bacterial activity),[1]; strain ECO+ 15-1,32 µg/mL
same,MIC (anti-bacterial activity),[1]; strain ECO+ 15-2,32 µg/mL
same,MIC (anti-bacterial activity),[1]; strain ECO+ 15-3,32 µg/mL
same,MIC (anti-bacterial activity),[1]; strain ECO+ 15-4,32 µg/mL
same,MIC (anti-bacterial activity),[1]; strain ECO− 15-1,32 µg/mL
same,MIC (anti-bacterial activity),[1]; strain ECO− 15-2,32 µg/mL
same,MIC (anti-bacterial activity),[1]; strain ECO− 15-3,32 µg/mL
same,MIC (anti-bacterial activity),[1]; strain ECO− 15-4,32 µg/mL
same,MIC (anti-bacterial activity),[2]; strain SPN 16-2,0.5 µg/mL
same,MIC (anti-bacterial activity),[2]; strain SPN 16-4,4 µg/mL
same,MIC (anti-bacterial activity),[3]; strain EFA 15-1,4 µg/mL
same,MIC (anti-bacterial activity),[3]; strain EFA 15-2,4 µg/mL
same,MIC (anti-bacterial activity),[3]; strain EFA 15-3,4 µg/mL
same,MIC (anti-bacterial activity),[3]; strain EFA 15-4,4 µg/mL
same,MIC (anti-bacterial activity),[3]; strain EFA 15-5,4 µg/mL
same,MIC (anti-bacterial activity),[3]; strain EFA 15-6,4 µg/mL
same,MIC (anti-bacterial activity),[3]; strain EFA 15-9,4 µg/mL
same,MIC (anti-bacterial activity),[4]; strain MRSA 15-1,0.5 µg/mL
same,MIC (anti-bacterial activity),[4]; strain MRSA 15-2,1 µg/mL
same,MIC (anti-bacterial activity),[4]; strain MRSA 15-3,0.5 µg/mL
same,MIC (anti-bacterial activity),[4]; strain MRSA 15-4,0.2 µg/mL
same,"Anti-bacterial activity (MIC), strain BCA 14-10",[5],3 µg/mL
same,MIC (anti-bacterial activity),[5]; strain BCA 14-1,2 µg/mL
same,MIC (anti-bacterial activity),[5]; strain BCA 14-4,2 µg/mL
same,MIC (anti-bacterial activity),[5]; strain BCA 14-5,2 µg/mL
same,MIC (anti-bacterial activity),[5]; strain BCA 14-6,2 µg/mL
same,MIC (anti-bacterial activity),[5]; strain BCA 14-7,3 µg/mL
same,MIC (anti-bacterial activity),[5]; strain BCA 14-8,2 µg/mL
same,MIC (anti-bacterial activity),[6]; strain MRSE 15-1,0.5 µg/mL
same,MIC (anti-bacterial activity),[6]; strain MRSE 15-2,1 µg/mL
same,MIC (anti-bacterial activity),[6]; strain MRSE 15-3,1 µg/mL
same,MIC (anti-bacterial activity),[6]; strain MRSE 15-7,1 µg/mL
same,MIC (anti-bacterial activity),[7]; strain MSSE 15-3,1 µg/mL
same,MIC (anti-bacterial activity),[7]; strain MSSE 15-4,1 µg/mL
same,MIC (anti-bacterial activity),[7]; strain MSSE 15-5,1 µg/mL
same,MIC (anti-bacterial activity),[7]; strain MSSE 15-6,1 µg/mL
same,MIC (anti-bacterial activity),[8]; strain MSSA 15-3,1 µg/mL
same,MIC (anti-bacterial activity),[8]; strain MSSA 15-4,1 µg/mL
same,MIC (anti-bacterial activity),[8]; strain MSSA 15-5,0.5 µg/mL
same,MIC (anti-bacterial activity),[8]; strain MSSA 15-6,1 µg/mL
same,MIC (anti-bacterial activity),[9]; strain EFM 15-1,2 µg/mL
same,MIC (anti-bacterial activity),[9]; strain EFM 15-2,2 µg/mL
same,MIC (anti-bacterial activity),[9]; strain EFM 15-3,2 µg/mL
same,MIC (anti-bacterial activity),[9]; strain EFM 15-4,2 µg/mL
same,MIC (anti-bacterial activity),[9]; strain EFM 15-5,1 µg/mL
same,MIC (anti-bacterial activity),[9]; strain EFM 15-6,2 µg/mL
same,inhibition at 30 µM,[10],16%
